Read-outs that look alike come from different tables or passages of the source.

Data set [1] concerns Hs578T breast cancer cells. In words: FBS-induced 3D invasion into collagen gels, Hs578T. Type of data set: cell-based, human. To be noted: 100 nmol/L, 5% FBS as chemoattractant. Here is the method: (§1) In FIG. 4A, there is shown 3D reconstruction of FBS-induced invasion into collagen gels by Hs578T breast cancer cells in presence of CCR5 antagonists (100 nmol/L). In FIG. 3C there is shown 3D reconstruction of FBS-induced invasion into collagen gels by SUM-159 breast cancer cells in presence of CCR5 antagonists (100 nmol/L).
(§2) The 3-dimensional invasion assay was conducted as previously reported (12). Briefly, 100 μL of 1.67 mg/mL Rat Tail collagen type I (BD Biosciences) was pipetted into the top chamber of a 24-well 8-μm pore Transwell (Corning). The Transwell was incubated at 37° C. overnight to allow the collagen to solidify. A total of 30,000 cells were then seeded on the bottom of the Transwell membrane and allowed to attach. Serum-free growth medium was placed into the bottom chamber, whereas 15 ng/mL CCL5 or 5% FBS was used as a chemoattractant in the medium of the upper chamber. The cells were then chemoattracted across the filter through the collagen above for 3 days. Cells were fixed in 4% formaldehyde, permeabilized with 0.2% Triton-X in PBS, and then stained with 40 μg/mL propidium iodide (PI) for 2 hours. Fluorescence was analyzed by confocal z-sections (one section every 20 μm) at ×10 magnification from the bottom of the filter using a Zeiss LSM 510 Meta inverted confocal microscope at the Kimmel Cancer Center Bioimaging Facility. […]

Data set [2] concerns SUM-159 breast cancer cells. Nature of the data set: FBS-induced 3D invasion into collagen gels, SUM-159. Particulars: SUM-159 cells; 100 nmol/L; 5% FBS as chemoattractant. Type of data set: cell-based, human. Here is the method: as §1, §2
Data set [3] has as its system MDA-MB-231 cells (MDA.pFULG) established pulmonary metastasis. Nature of the data set: Growth of established pulmonary metastasis (treatment started 10 days after cell injection). In kind it is in vivo, NOD/SCID mice. Particulars: 8 mg/kg every 12 hours; treatment initiated 10 days after injection of cells. An excerpt: (§3) In FIG. 6A, there is shown the effect of CCR5 antagonist on breast cancer cell viability. […] Graph is from a representative experiment carried out by sextuplicate. No statistical differences were found (ANOVA) in 3 independent experiments. In FIG. 6B, there is shown CCR5 expression in MDA-MB-231 cells stably transfected with pcDNA3.1+/Zeo+ (MDA.Vector) or human CCR5 cloned into pCDNA3+Zeo+ (MDA.CCR5). […] Representative experiment from 2 carried out by sextuplicate. […] Thus, the reduction in tumor mass in the lungs is due to the inhibition of “homing” or spread of tumors to the lung. […] Cells expressing eGFP were counted in 3 random fields of 2 different histologic sections (separated 700 μm from each other) per mouse (n=5 mice per group). […]
(§4) MB-MDA-231 cells expressing Luc2-eGFP (called MDA.pFLUG for the rest of the article) were detached with a nonenzymatic cell dissociation buffer (4 mmol/L EDTA in Ca^2+ and Mg^2+-free PBS), resuspended in Dulbecco's PBS without Ca^2+ and Mg^2+ and immediately injected into the tail vein of 8-week-old, female nonobese diabetic/severe combined immunodeficient (NOD/SCID) mice (NCI, Bethesda Md.). […] Data are expressed as total photon flux and were analyzed using Living Image 3.0 software (Caliper Life Sciences). […] Cryosections (10 μm) were counterstained with 4′,6-diamidino-2-phenylindole analyzed by confocal microscopy. […]

In data set [4] the test system is MDA-MB-231 cells (MDA.pFULG) pulmonary metastases. Nature of the data set: Experimental lung metastasis assay (tail vein injection of MDA.pFULG cells, BLI, histology). In kind it is in vivo, NOD/SCID mice. How it is done:
In FIG. 5A, MDA-MB-231 cells transduced with Luc2-eGFP fusion protein were injected into the tail vein of NOD/SCID mice and the in vivo bioluminescent signal was quantified weekly. […] Tumor area was quantified with the Nikon Elements BR 3.0 software analyzing at low magnification (×40) 2 random fields of 2 different histologic sections (separated 600 μm from each other) per mouse. Statistical analysis was conducted using the Student t test with Welch correction for heterogeneous variances (n=33 and 12 for control and treated groups, respectively).
MB-MDA-231 cells expressing Luc2-eGFP (called MDA.pFLUG for the rest of the article) were detached with a nonenzymatic cell dissociation buffer (4 mmol/L EDTA in Ca^2+ and Mg^2+-free PBS), resuspended in Dulbecco's PBS without Ca^2+ and Mg^2+ and immediately injected into the tail vein of 8-week-old, female nonobese diabetic/severe combined immunodeficient (NOD/SCID) mice (NCI, Bethesda Md.). Each mouse received 10^6 cells. […] Treatment was started immediately after injection or 10 days later for the experiments analyzing the proliferation of established metastasis. For in vivo bioluminescence imaging (BLI), mice were given an intraperitoneal (i.p.) injection with 200 μL of d-luciferin (30 mg/mL). Mice were anesthetized with isoflurane (2% in 1 L/min oxygen), and bioluminescence images were acquired 10 to 15 minutes after d-luciferin injection using the IVIS XR system (Caliper Life Sciences). Acquisition times ranged from 10 seconds (for later time points) to 5 minutes (for early time points). Data are expressed as total photon flux and were analyzed using Living Image 3.0 software (Caliper Life Sciences). For ex vivo BLI, d-luciferin was diluted in PBS to a final concentration of 300 μg/mL and used to soak freshly isolated lungs for 2 to 3 minutes before imaging. Some lungs were stained with India ink, as previously reported (33), or processed and stained with hematoxylin and eosin to corroborate the presence of pulmonary tumors. For homing assays, mice were euthanized 24 hours after the intravenous injection of MDA.pFULG cells. Lungs were perfused with PBS, fixed with freshly prepared formaldehyde (4% in PBS), and frozen in optimum cutting temperature (Sakura Finetek). Cryosections (10 μm) were counterstained with 4′,6-diamidino-2-phenylindole analyzed by confocal microscopy. Animal experiments were approved by the Thomas Jefferson University's Institutional Animal Care and Use Committee.
MDA-MB-231 cells transduced within the Luc2-eGFP lentiviral vector (MDA.pFULG cells) were used in an experimental metastasis model. The Luc2 gene is a codon-optimized version of Luc and cells expressing this reporter were 10 to 100 times brighter than the unmodified Luc gene (30). […]

For data set [5] the following is noted: humans; oral dose of 300 mg; cited from earlier work.
Another data set concerns MDA.pFULG cells. Nature of the data set: Homing assay: lung colonization 24 hours after injection of MDA.pFULG cells. Type of data set: in vivo, mice. To be noted: 10 administrations (twice a day for 5 days) before i.v. injection of cells; lungs 24 hours after injection.
Excerpt: as §3, §4

The next data set concerns the target CCR5 (Homo sapiens, UniProt P51681). Nature of the data set: CCL5-induced calcium signaling (Fluo-4-AM intracellular calcium assay) in MDA-MB-231 cells. In kind it is cell-based. Particulars: antagonist 100 nmol/L for 30 minutes before addition of CCL5. How it is done:
Micrographs illustrate the axis (x-x′) of the pseudoline scan plot. Those axes were used to construct the adjacent intensity versus time plots. […] The data in FIGS. 3B and 3D are mean±SEM of 3 to 4 independent experiments. Statistical analysis was conducted using the Student t test.
Calcium responses induced either by CCL5 or FBS in human cancer cell lines were monitored under fluorescence confocal microscope as previously reported (28). Briefly, breast cancer cells were seeded in 4-well labtek chambers (Nunc) at 10^4 cells/cm^2 and incubated for 1 day. After 12-hour starvation, cells were labeled by incubating them with […] Fluo-4-AM (Molecular Probes) in HBSS for 30 minutes, washed twice, and incubated for additional 30 minutes before imaging under the microscope. Time-lapse images were collected using a Zeiss LSM 510 Meta inverted confocal microscope with the incubator at 37° C. Relative intracellular Ca^2+ concentration was determined by the changes in fluorescent intensity (FI) of Fluo-4-AM upon the addition of CCL5 (60 ng/mL) or FBS (5%) and was calculated as (FIt−FI0)/FI0.
The importance of CCR5 in HIV infection led to the development of different drugs that target this receptor.

In a further data set the test system is MDA-MB-231 cells. Nature of the data set: MTT cell viability assay. Type of data set: cell-based, human. To be noted: increasing concentrations, 48 hours. The text has this:
In FIG. 6A, there is shown the effect of CCR5 antagonist on breast cancer cell viability. […] Graph is from a representative experiment carried out by sextuplicate. No statistical differences were found (ANOVA) in 3 independent experiments. In FIG. 6B, there is shown CCR5 expression in MDA-MB-231 cells stably transfected with pcDNA3.1+/Zeo+ (MDA.Vector) or human CCR5 cloned into pCDNA3+Zeo+ (MDA.CCR5). […] Representative experiment from 2 carried out by sextuplicate. […] Thus, the reduction in tumor mass in the lungs is due to the inhibition of “homing” or spread of tumors to the lung. […] Cells expressing eGFP were counted in 3 random fields of 2 different histologic sections (separated 700 μm from each other) per mouse (n=5 mice per group). Statistical analysis was conducted using Student t test. Bar in micrographs, 100 μm.
The MTT assay is a colorimetric assay for measuring the activity of cellular enzymes that reduce the tetrazolium dye, 3-(4,5-Dimethylthiazol-2-yl)-2,5-diphenyltetrazolium bromide, a yellow tetrazole (MTT), to its insoluble formazan, giving a purple color. […]
The effects of CCR5 antagonists on cell viability and proliferation rate were estimated using the soluble tetrazolium salt MTT assay (29). […] Then, the reduced (insoluble and colored) formazan was dissolved in DMSO and measured spectrophotometrically at 570 nm. […]
A general note: Tetrazolium dyes change colour on reduction, which living cells bring about.

For data set [6] the following is noted: mice; 16 mg/kg; cited from earlier work.
Where [7] appears, read: 8 mg/kg twice daily, oral gavage.

CCR5, sequence (P51681 whole entry): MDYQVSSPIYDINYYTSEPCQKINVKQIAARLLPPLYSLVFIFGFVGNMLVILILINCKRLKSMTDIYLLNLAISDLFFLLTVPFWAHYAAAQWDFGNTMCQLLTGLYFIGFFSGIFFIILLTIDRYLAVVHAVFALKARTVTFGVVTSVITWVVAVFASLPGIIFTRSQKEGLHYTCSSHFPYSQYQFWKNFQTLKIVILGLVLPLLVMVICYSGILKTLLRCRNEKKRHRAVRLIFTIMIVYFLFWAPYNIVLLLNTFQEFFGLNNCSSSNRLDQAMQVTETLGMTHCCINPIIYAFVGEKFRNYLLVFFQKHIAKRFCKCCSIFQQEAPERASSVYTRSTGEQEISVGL

For orientation: Cmax means the maximum level reached in the sampled fluid or tissue. With `Cc1nnc(C(C)C)n1[C@@H]1C[C@H]2CC[C@@H](C1)N2CC[C@H](NC(=O)C1CCC(F)(F)CC1)c1ccccc1` [maraviroc, 4,4-difluoro-N-[(1S)-3-[(1R,5S)-3-(3-methyl-5-propan-2-yl-1,2,4-triazol-4-yl)-8-azabicyclo[3.2.1]octan-8-yl]-1-phenylpropyl]cyclohexane-1-carboxamide], the “FBS-induced breast cancer cell invasion” value in data set [1] and in data set [2] was “inhibited FBS-induced breast cancer cell invasion” throughout. Further, the “tumor growth of established pulmonary metastasis (in vivo BLI)” value in data set [3] is reported as “did not modify tumor growth”. Further, the “fraction of treated mice with detectable metastatic tumors” value in [4] (setting [7]) is reported as 50%. Moreover, in data set [4] (setting [7]), the “reduction of mean size of metastatic tumors (lung histology)” value stood at 65%. Also, in [4] (8 mg/kg twice daily, oral gavage, weekly BLI for 5 weeks), the “number and size of pulmonary metastases compared with vehicle-treated mice” value is given as “significant reduction”. Besides, the pulmonary tumor burden result in [4] (16 mg/kg/d divided into 2 doses) is reported as “significantly reduced”. For the same compound, the figures for the Cmax in data set [5] and in data set [6] were 1.2 µM and 1.04 µM, respectively. Moreover, the “reduction of the number of eGFP cells in the lungs” value with MDA.pFULG cells came to 40%. In addition, the “inhibition of CCL5-induced calcium responses” value on CCR5 is 65%. In addition, the “cell viability (MTT reduction)” value in the data set on MDA-MB-231 cells is given as “did not affect the MTT reduction”.
For the compound `COC[C@@H](c1ccc(C(F)(F)F)cc1)N1CCN(C2(C)CCN(C(=O)c3c(C)ncnc3C)CC2)C[C@@H]1C` [vicriviroc, (4,6-dimethylpyrimidin-5-yl)-[4-[(3S)-4-[(1R)-2-methoxy-1-[4-(trifluoromethyl)phenyl]ethyl]-3-methylpiperazin-1-yl]-4-methylpiperidin-1-yl]methanone], the “FBS-induced breast cancer cell invasion” value in data set [1] and in [2] was “inhibited FBS-induced breast cancer cell invasion” in each case. The “inhibition of CCL5-induced calcium responses” value at CCR5 is given as 90%. In addition, in the data set with MDA-MB-231 cells, the “cell viability (MTT reduction)” value is on record as “did not affect the MTT reduction”.

The values above are taken from patent US11633397B2, “Use of modulators of CCR5 in the treatment of cancer and cancer metastasis” (priority 2012, dated 2023).
